For 34 molecules, IC50 results are on record in patent publication US10246456B2, “IRAK4 inhibiting agents” (BIOGEN MA INC., priority 2014, dated 2019).

Molecules are shown by their SMILES.

The assay deals with IRAK4 (Homo sapiens (Human), UniProt Q9NWZ3). Briefly: IRAK-4 AlphaScreen biochemical kinase assay. Particulars: 1 nM IRAK4, 1 mM ATP, 3.5 h at RT. Summed up: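 AlphaScreen read-out: streptavidin beads bind the biotinylated peptide and protein A beads bind the anti-phosphothreonine antibody, so energy transfer reports phosphorylation of the peptide. The kinase is human IRAK-4.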
Chain of IRAK4 (Q9NWZ3 whole entry, species assumed): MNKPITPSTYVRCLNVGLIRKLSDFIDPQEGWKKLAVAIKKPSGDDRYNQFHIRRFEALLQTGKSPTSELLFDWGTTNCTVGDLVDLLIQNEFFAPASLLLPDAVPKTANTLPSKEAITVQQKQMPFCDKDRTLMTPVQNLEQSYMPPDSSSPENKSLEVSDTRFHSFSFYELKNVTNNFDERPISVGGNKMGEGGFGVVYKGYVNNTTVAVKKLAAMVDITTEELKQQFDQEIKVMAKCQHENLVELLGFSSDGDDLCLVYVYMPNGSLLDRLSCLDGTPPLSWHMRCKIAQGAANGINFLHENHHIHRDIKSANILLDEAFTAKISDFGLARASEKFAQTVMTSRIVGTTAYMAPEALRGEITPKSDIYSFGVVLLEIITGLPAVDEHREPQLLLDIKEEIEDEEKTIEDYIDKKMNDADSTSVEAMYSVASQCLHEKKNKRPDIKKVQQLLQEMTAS

Usually IC50 stands for the concentration needed to halve the response being measured. As to `C[C@H](N)c1cccc(-c2cc(-c3cnccn3)c3cnn(-c4cccc(CO)n4)c3c2)n1` [Example 388, (S)-(6-(6-(6-(1-aminoethyl)pyridin-2-yl)-4-(pyrazin-2-yl)-1H-indazol-1-yl)pyridin-2-yl)methanol], the IC50 is below 100 nM.
In the case of `CCC[C@H](N)c1cccc(-c2cc(-c3cc(C)n(C)n3)c3cnn(-c4cccc(CO)n4)c3c2)n1` [Example 389, (S)-(6-(6-(6-(1-aminobutyl)pyridin-2-yl)-4-(1,5-dimethyl-1H-pyrazol-3-yl)-1H-indazol-1-yl)pyridin-2-yl)methanol], the IC50 is below 100 nM.
Turning to `CC[C@@H](N)c1cccc(-c2cc(-c3cc(C)n(C)n3)c3cnn(-c4cccc(CO)n4)c3c2)n1` [Example 390, (R)-(6-(6-(6-(1-aminopropyl)pyridin-2-yl)-4-(1,5-dimethyl-1H-pyrazol-3-yl)-1H-indazol-1-yl)pyridin-2-yl)methanol], the IC50 was below 100 nM.
On to `Cc1cc(-c2cc(-c3cccc([C@@H](N)CF)n3)cc3c2cnn3-c2cccc(CO)n2)nn1C` [Example 391, (R)-(6-(6-(6-(1-amino-2-fluoroethyl)pyridin-2-yl)-4-(1,5-dimethyl-1H-pyrazol-3-yl)-1H-indazol-1-yl)pyridin-2-yl)methanol], for which the IC50 is below 100 nM.
The molecule `Cc1cc(-c2cc(-c3cccc([C@@H](N)CCCO)n3)cc3c2cnn3-c2cccc(CO)n2)nn1C` [Example 392, (S)-4-amino-4-(6-(4-(1,5-dimethyl-1H-pyrazol-3-yl)-1-(6-(hydroxymethyl)pyridin-2-yl)-1H-indazol-6-yl)pyridin-2-yl)butan-1-ol] displayed an IC50 below 100 nM.
`C[C@H](N)c1cccc(-c2cc(-c3ccncn3)c3cnn(-c4cccc(CO)n4)c3c2)n1` [Example 393, (S)-(6-(6-(6-(1-aminoethyl)pyridin-2-yl)-4-(pyrimidin-4-yl)-1H-indazol-1-yl)pyridin-2-yl)methanol] displayed an IC50 below 100 nM.
Consider `C[C@H](N)c1cccc(-c2cc(-c3cccnn3)c3cnn(-c4cccc(CO)n4)c3c2)n1` [Example 394, (S)-(6-(6-(6-(1-aminoethyl)pyridin-2-yl)-4-(pyridazin-3-yl)-1H-indazol-1-yl)pyridin-2-yl)methanol], for which the IC50 is below 100 nM.
`Cn1ccc(-c2cc(-c3cccc([C@@H](N)CCCO)n3)cc3c2cnn3-c2cccc(CO)n2)n1` [Example 395, (S)-4-amino-4-(6-(1-(6-(hydroxymethyl)pyridin-2-yl)-4-(1-methyl-1H-pyrazol-3-yl)-1H-indazol-6-yl)pyridin-2-yl)butan-1-ol] yielded an IC50 below 100 nM.
`N[C@@H](CCCO)c1cccc(-c2ccc3cnn(-c4cccc(CO)n4)c3c2)n1` [Example 396, (S)-4-amino-4-(6-(1-(6-(hydroxymethyl)pyridin-2-yl)-1H-indazol-6-yl)pyridin-2-yl)butan-1-ol]: the IC50 is below 100 nM.
With `CCC[C@H](N)c1cccc(-c2ccc3cnn(-c4ccnc(CO)c4)c3c2)n1` [Example 400, (S)-(4-(6-(6-(1-aminobutyl)pyridin-2-yl)-1H-indazol-1-yl)pyridin-2-yl)methanol], the IC50 lay within 100 to 1000 nM.
The figure for `CCC[C@H](N)c1cccc(-c2ccc3cnn(-c4ccnc(CO)n4)c3c2)n1` [Example 401, (S)-(4-(6-(6-(1-aminobutyl)pyridin-2-yl)-1H-indazol-1-yl)pyrimidin-2-yl)methanol] is below 100 nM; for `CCC[C@H](N)c1cccc(-c2ccc3cnn(-c4cccc(CO)c4)c3c2)n1` [Example 402, (S)-(3-(6-(6-(1-aminobutyl)pyridin-2-yl)-1H-indazol-1-yl)phenyl)methanol] it is below 100 nM.
`CCC[C@H](N)c1cccc(-c2ccc3cnn(-c4nccc(CO)n4)c3c2)n1` [Example 403, (S)-(2-(6-(6-(1-aminobutyl)pyridin-2-yl)-1H-indazol-1-yl)pyrimidin-4-yl)methanol] registered an IC50 below 100 nM.
Molecule `CCC[C@H](N)c1ccnc(-c2ccc3cnn(-c4cccc(CO)n4)c3c2)c1` [Example 404, (S)-(6-(6-(4-(1-aminobutyl)pyridin-2-yl)-1H-indazol-1-yl)pyridin-2-yl)methanol] came in with a 50% inhibitory concentration (IC50) of 100 to 1000 nM.
As to `CCC[C@H](N)c1nccc(-c2ccc3cnn(-c4cccc(CO)n4)c3c2)n1` [Example 405, (S)-(6-(6-(2-(1-aminobutyl)pyrimidin-4-yl)-1H-indazol-1-yl)pyridin-2-yl)methanol], the IC50 was below 100 nM.
Regarding `CCC[C@@H](N)c1nccc(-c2ccc3cnn(-c4cccc(CO)n4)c3c2)n1` [Example 406, (R)-(6-(6-(2-(1-aminobutyl)pyrimidin-4-yl)-1H-indazol-1-yl)pyridin-2-yl)methanol], the IC50 is below 100 nM.
For the molecule `CCC[C@H](N)c1cncc(-c2ccc3cnn(-c4cccc(CO)n4)c3c2)n1` [Example 407, (S)-(6-(6-(6-(1-aminobutyl)pyrazin-2-yl)-1H-indazol-1-yl)pyridin-2-yl)methanol], the IC50 was below 100 nM.
Molecule `CCC[C@@H](N)c1cncc(-c2ccc3cnn(-c4cccc(CO)n4)c3c2)n1` [Example 408, (R)-(6-(6-(6-(1-aminobutyl)pyrazin-2-yl)-1H-indazol-1-yl)pyridin-2-yl)methanol] gave an IC50 below 100 nM.
Then `COc1cc(-c2cccc([C@@H](N)CCCO)n2)cc2c1cnn2-c1cccc(CO)n1` [Example 409, (S)-4-amino-4-(6-(1-(6-(hydroxymethyl)pyridin-2-yl)-4-methoxy-1H-indazol-6-yl)pyridin-2-yl)butan-1-ol], with below 100 nM; and `CCOc1cc(-c2cccc([C@@H](N)CCCO)n2)cc2c1cnn2-c1cccc(CO)n1` [Example 410, (S)-4-amino-4-(6-(4-ethoxy-1-(6-(hydroxymethyl)pyridin-2-yl)-1H-indazol-6-yl)pyridin-2-yl)butan-1-ol], with below 100 nM; and `C[C@@H](N)c1ccnc(-c2ccc3cnn(-c4cccc(CO)n4)c3c2)n1` [Example 412, (R)-(6-(6-(4-(1-aminoethyl)pyrimidin-2-yl)-1H-indazol-1-yl)pyridin-2-yl)methanol], with 1000 to 10000 nM.
`[2H][C@](N)(CCC)c1cccc(-c2ccc3cnn(-c4cccc(CO)n4)c3c2)n1` [Example 419, deutero (S)-(6-(6-(6-(1-aminobutyl)pyridin-2-yl)-1H-indazol-1-yl)pyridin-2-yl)methanol] gave an IC50 below 100 nM.
Consider `CC1(N)CCCc2ccc(-c3ccc4cnn(-c5cccc(CO)n5)c4c3)nc21` (stereo not shown) [Example 420, (6-(6-(8-amino-8-methyl-5,6,7,8-tetrahydroquinolin-2-yl)-1H-indazol-1-yl)pyridin-2-yl)methanol], for which the IC50 is below 100 nM.
Then `CCCC1(N)CCCc2ccc(-c3ccc4cnn(-c5cccc(CO)n5)c4c3)nc21` (stereo not shown) [Example 421, (6-(6-(8-amino-8-propyl-5,6,7,8-tetrahydroquinolin-2-yl)-1H-indazol-1-yl)pyridin-2-yl)methanol], with below 100 nM; and `CCC[C@H](N)c1cccc(-c2cc(C3CCN(C)CC3)c3cnn(-c4cccc(CO)n4)c3c2)n1` [Example 424, (S)-(6-(6-(6-(1-aminobutyl)pyridin-2-yl)-4-(1-methylpiperidin-4-yl)-1H-indazol-1-yl)pyridin-2-yl)methanol], with below 100 nM.
With `CCC[C@H](N)c1cccc(-c2cc(OCCO)c3cnn(-c4cccc(CO)n4)c3c2)n1` [Example 426, (S)-2-((6-(6-(1-aminobutyl)pyridin-2-yl)-1-(6-(hydroxymethyl)pyridin-2-yl)-1H-indazol-4-yl)oxy)ethanol], the IC50 is below 100 nM.
As to `COCCOc1cc(-c2cccc([C@@H](N)CCCO)n2)cc2c1cnn2-c1cncc(CO)n1` [Example 428, (S)-4-amino-4-(6-(1-(6-(hydroxymethyl)pyrazin-2-yl)-4-(2-methoxyethoxy)-1H-indazol-6-yl)pyridin-2-yl)butan-1-ol], the IC50 was below 100 nM.
The figure for `COCCOc1cc(-c2cccc([C@@H](N)C(F)CCO)n2)cc2c1cnn2-c1cccc(CO)n1` (stereo partly drawn) [Example 430, (4R)-4-amino-3-fluoro-4-(6-(1-(6-(hydroxymethyl)pyridin-2-yl)-4-(2-methoxyethoxy)-1H-indazol-6-yl)pyridin-2-yl)butan-1-ol] is below 100 nM.
The figure for `COCCOc1cc(-c2cccc([C@H](N)C(F)CCO)n2)cc2c1cnn2-c1cccc(CO)n1` (stereo partly drawn) [Example 431, (4S)-4-amino-3-fluoro-4-(6-(1-(6-(hydroxymethyl)pyridin-2-yl)-4-(2-methoxyethoxy)-1H-indazol-6-yl)pyridin-2-yl)butan-1-ol] is 100 to 1000 nM.
For `COCCOc1cc(-c2cccc([C@@H](N)C(C)F)n2)cc2c1cnn2-c1cccc(CO)n1` (stereo partly drawn) [Example 433, (6-(6-(6-((1R)-1-amino-2-fluoropropyl)pyridin-2-yl)-4-(2-methoxyethoxy)-1H-indazol-1-yl)pyridin-2-yl)methanol], the 50% inhibitory concentration (IC50) was below 100 nM.
Turning to `C=CC[C@H](N)c1cccc(-c2ccc3cnn(-c4cccc(CO)n4)c3c2)n1` [Example 435, (S)-(6-(6-(6-(1-aminobut-3-en-1-yl)pyridin-2-yl)-1H-indazol-1-yl)pyridin-2-yl)methanol], the IC50 was below 100 nM.
Regarding `CCOc1cc(-c2cccc([C@@H](N)c3ccccc3)n2)cc2c1cnn2-c1cccc(CO)n1` [Example 440, (S)-(6-(6-(6-(amino(phenyl)methyl)pyridin-2-yl)-4-ethoxy-1H-indazol-1-yl)pyridin-2-yl)methanol], the IC50 is below 100 nM.
`CC#CC[C@H](N)c1cccc(-c2cc(OCC)c3cnn(-c4cccc(CO)n4)c3c2)n1` [Example 441, (S)-(6-(6-(6-(1-aminopent-3-yn-1-yl)pyridin-2-yl)-4-ethoxy-1H-indazol-1-yl)pyridin-2-yl)methanol] had an IC50 below 100 nM.
In turn, `CC(=O)C[C@H](N)c1cccc(-c2ccc3cnn(-c4cccc(CO)n4)c3c2)n1` [Example 449, (S)-4-amino-4-(6-(1-(6-(hydroxymethyl)pyridin-2-yl)-1H-indazol-6-yl)pyridin-2-yl)butan-2-one] registered an IC50 below 100 nM.
